Test results from patent US8399498B2, “Animal ectoparasite-controlling agent” (Sumitomo Chemical Company, Limited, priority 2010, dated 2013).

Legend:
Assay type in all cases: in vivo
[1] = system: Haemaphysalis longicornis; test: Dropping application against dog-infested ticks; conditions: dog (beagle), dropping application on skin of neck and back, 20 mg/kg
Method: The previous day before dropping application, 100 test ticks (Haemaphysalis longicornis, young ticks) were deposited on a dog (beagle). Before the dropping application, infested ticks were counted.
Each (1.5 g) of the present hydrazide compound (1) and Comparative compound (52) was dissolved in diethylene glycol monoethyl ether (6.0 g) to prepare a test solution. Said test solution was directly dropped on the skin of the neck and back of the dog while pushing aside fur thereon at a rate of 0.1 ml per 1 kg of the dog's body weight (dose amount: 20 mg/kg). This is referred to as a test group. On the other hand, diethylene glycol monoethyl ether alone was applied dropwise to a placebo group.
Two (2) days after the application, the number of living ticks, which were infesting the dogs, was examined. When the examination was completed, all infested ticks were removed from the dogs.
The infestation rate and control rate were calculated by the following formulae:
Method of calculating infestation rate and control rate at the initial stage (2 days) after the application: Infestation rate (%) at X days after application=(number of living ticks at X days/number of living ticks before application)×100 Control rate (%) at X days after application=(infestation rate of test group before application−infestation rate of test group at X days)/infestation rate of test group before application×100 […]

[2] = system: Haemaphysalis longicornis; test: Dropping application against mouse-infested ticks; conditions: 0.1% w/v solution 200 μL dropwise on whole body surface, 2 days after application
Method: The previous day before dropping application, 30 test ticks (Haemaphysalis longicornis, young ticks) were deposited on a mouse. Before the dropping application, uninfested ticks were removed.
The present hydrazide compound (1) (5 mg) was dissolved in a mixture (5 mL) of propylene carbonate and diethylene glycol monoethyl ether in equal amounts to prepare a 0.1% w/v solution. Said solution (200 μL) was applied dropwise to the whole body surface of a mouse with a pipette. To a control group, the mixture (200 μL) alone was applied. Each application was repeated 3 times per group.
Two (2) days after the application, the number of dead ticks was examined and the mortality was calculated by the following formula: Mortality (%)=100×(number of dead ticks/infested ticks before dropping application)

[3] = system: Haemaphysalis longicornis; test: Oral administration against mouse-infested ticks; conditions: test solution 20 mg/10 mL at 10 mL per 1 kg body weight, 2 days after administration
Method: The previous day before oral administration, 30 test ticks (Haemaphysalis longicornis, young ticks) were deposited on a mouse. Before the oral administration, uninfested ticks were removed.
The present hydrazide compound (1) (20 mg) was dissolved in dimethylformamide (680 mg), and thereto a corn oil was added to prepare a test solution (10 mL). Said test solution was orally administered to the mouse at the rate of 10 mL per 1 kg of the body weight of the mouse with a gastric sonde. To a control group, a 7% dimethylformamide/corn oil solution alone was orally administered. Each administration was repeated 3 times per group.
Two (2) days after the administration, the number of dead ticks was examined and the mortality was calculated by the following formula: Mortality (%)=100×(number of dead ticks/infested ticks before oral administration)

CC(=O)NNc1cc(C2=NOC(c3cc(Cl)cc(Cl)c3)(C(F)(F)F)C2)ccc1Cl (stereo not shown) [Comparative compound (52), N′-{5-[5-(3,5-dichlorophenyl)-5-trifluoromethyl-4,5-dihydroisoxazol-3-yl]-2-chlorophenyl}acetohydrazide, reference compound]
Tick control rates (%) at 2 days after the application [1]: 44%

COCC(=O)NNc1cc(C2=NOC(c3cc(Cl)cc(Cl)c3)(C(F)(F)F)C2)ccc1Cl (stereo not shown) [Compound (1), N′-{2-chloro-5-[5-(3,5-dichlorophenyl)-5-trifluoromethyl-4,5-dihydroisoxazol-3-yl]phenyl}methoxyacetohydrazide]
Mortality [2]: ≥ 70% | Mortality [3]: ≥ 90% | Tick control rates (%) at 2 days after the application [1]: 94%
